Structures are written as SMILES.

The results in this text go back to PMC8386105, “A mechanism-inspired UDP-N-acetylglucosamine pyrophosphorylase inhibitor” (RSC Chemical Biology, 2020).

Assay [1] has as its target T1, UDP-N-acetylglucosamine pyrophosphorylase (AfUAP1) (Aspergillus fumigatus, UniProt Q4WAR0).
T1 construct: gene AFUA_7G02180
T1 sequence (Q4WAR0 1-509): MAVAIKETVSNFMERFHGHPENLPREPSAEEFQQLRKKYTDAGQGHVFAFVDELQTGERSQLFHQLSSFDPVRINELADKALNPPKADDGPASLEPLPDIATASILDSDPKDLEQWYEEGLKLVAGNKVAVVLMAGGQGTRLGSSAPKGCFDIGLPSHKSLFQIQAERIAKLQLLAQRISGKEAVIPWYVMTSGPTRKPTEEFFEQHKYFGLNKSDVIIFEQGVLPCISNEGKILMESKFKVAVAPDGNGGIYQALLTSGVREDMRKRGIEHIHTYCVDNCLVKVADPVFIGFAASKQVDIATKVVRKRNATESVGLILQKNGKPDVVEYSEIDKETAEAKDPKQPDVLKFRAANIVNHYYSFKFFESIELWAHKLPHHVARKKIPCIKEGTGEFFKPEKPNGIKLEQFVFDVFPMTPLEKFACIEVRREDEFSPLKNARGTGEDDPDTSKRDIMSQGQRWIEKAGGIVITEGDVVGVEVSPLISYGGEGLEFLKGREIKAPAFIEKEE

The target of assay [2] is T1, UDP-N-acetylglucosamine pyrophosphorylase (AfUAP1). The assay is described as follows: HPAEC assay of UDP-GlcNAc formation by recombinant enzyme. The format is biochemical.

Turning to `O=P(O)(O)OP(=O)(O)O` [pyrophosphate], in assay [1], the “X-ray crystal structure, 1.75 Å (PPi and Mg2+ soak)” value was “is tethered by interactions with positively charged residues, such as Arg141, Lys437 and Lys148”. For `O=c1ccn([C@@H]2O[C@H](COP(=O)(O)CP(=O)(O)OP(=O)(O)O)[C@@H](O)[C@H]2O)c(=O)[nH]1` [compound 5, meUTP], the IC50 in assay [2] turned out to be 115 ± 40 µM.

As a reminder, the IC50 is the midpoint of a concentration-inhibition curve.
